The values below come from ChEMBL document CHEMBL3045946, “Synthesis and biological activity studies of new hybrid molecules containing tryptamine moiety” (2012).

For one experiment, the system named is Candida albicans. Put plainly: Antifungal activity against Candida albicans ATCC 60193 after 18 hr by agar well diffusion method. In kind it is functional, organism-based. On the technique in general: A growth-free zone around the sample is the usual read-out of agar diffusion tests.
The next experiment deals with Enterococcus faecalis. Put plainly: Antibacterial activity against Enterococcus faecalis ATCC 29212 after 18 hr by agar well diffusion method. In kind it is functional.
Another experiment concerns Saccharomyces cerevisiae. Put plainly: Antifungal activity against Saccharomyces cerevisiae RSKK 251 after 18 hr by agar well diffusion method. The experiment is classed as functional, organism-based.
A further experiment has as its system Bacillus cereus. Put plainly: Antibacterial activity against Bacillus cereus 702 Roma after 18 hr by agar well diffusion method. For IZ: test concentration or dose not given here. In kind it is functional.
Another experiment has as its system Staphylococcus aureus. Put plainly: Antibacterial activity against Staphylococcus aureus ATCC 25923 after 18 hr by agar well diffusion method. The experiment is classed as functional.
The subject of experiment [1] is Mycolicibacterium smegmatis. Put plainly: Antibacterial activity against Mycobacterium smegmatis ATCC 607 after 18 hr by agar well diffusion method. For IZ: test concentration or dose not given here. In kind it is functional.
The next experiment deals with Pseudomonas aeruginosa. Put plainly: Antibacterial activity against Pseudomonas aeruginosa ATCC 43288 after 18 hr by agar well diffusion method. The experiment is classed as functional.
The subject of another experiment is Candida tropicalis. Put plainly: Antifungal activity against Candida tropicalis after 18 hr by agar well diffusion method. In kind it is functional, organism-based.

Activity calls are given as the source filed them. No cut-off for these calls is given here.

As to `Cc1ccc(Cc2nn(Cc3nnc(S)o3)c(=O)n2CCc2c[nH]c3ccccc23)cc1`, the outcome in the experiment on Candida albicans, in the experiment on Saccharomyces cerevisiae, with Pseudomonas aeruginosa and in the experiment with Candida tropicalis was inactive. Also, the “inhibition zone (IZ)” value in the experiment on Enterococcus faecalis turned out to be 12 mm; in the experiment on Bacillus cereus it was 8 mm; in the experiment with Staphylococcus aureus it was 12 mm; in experiment [1], 8 mm.
`COc1ccc(/C=N/NC(=O)Cn2nc(Cc3ccc(Cl)cc3)n(CCc3c[nH]c4ccccc34)c2=O)cc1`: the outcome (in the experiment with Candida albicans; in the experiment with Enterococcus faecalis; in the experiment with Saccharomyces cerevisiae; in the experiment on Bacillus cereus; in the experiment on Staphylococcus aureus; in experiment [1]) was inactive. The outcome with Pseudomonas aeruginosa and in the experiment with Candida tropicalis was inactive.
`COc1ccc(/C=N/NC(=O)Cn2nc(Cc3ccc(C)cc3)n(CCc3c[nH]c4ccccc34)c2=O)cc1`: the result (in the experiment on Candida albicans; with Enterococcus faecalis; in the experiment with Saccharomyces cerevisiae; in the experiment on Bacillus cereus; with Staphylococcus aureus; in experiment [1]) was inactive. Further, the outcome with Pseudomonas aeruginosa and in the experiment with Candida tropicalis was inactive.
`O=C(Cn1nc(Cc2ccc(Cl)cc2)n(CCc2c[nH]c3ccccc23)c1=O)NNS(=O)(=O)c1ccc(Br)cc1`: the outcome with Candida albicans, in the experiment with Enterococcus faecalis, in the experiment on Saccharomyces cerevisiae and with Candida tropicalis was inactive. Moreover, the “inhibition zone (IZ)” value in the experiment on Bacillus cereus is reported as 12 mm; with Staphylococcus aureus it was 8 mm; in experiment [1] it was 9 mm; in the experiment with Pseudomonas aeruginosa, 12 mm.
With `Cc1ccc(Cc2nn(CC(=O)N/N=C/c3ccc[nH]3)c(=O)n2CCc2c[nH]c3ccccc23)cc1`, the outcome (in the experiment with Candida albicans; in the experiment with Enterococcus faecalis; in the experiment on Saccharomyces cerevisiae; with Bacillus cereus; with Staphylococcus aureus; in experiment [1]) was inactive. For the same compound, the result in the experiment on Pseudomonas aeruginosa and with Candida tropicalis was inactive.
As to `Nn1c(S)nnc1Cn1nc(Cc2ccc(Cl)cc2)n(CCc2c[nH]c3ccccc23)c1=O`, the outcome in the experiment on Candida albicans, with Enterococcus faecalis, in the experiment on Saccharomyces cerevisiae, in the experiment with Staphylococcus aureus, in the experiment with Pseudomonas aeruginosa and with Candida tropicalis was inactive. Also, the “inhibition zone (IZ)” value (in the experiment with Bacillus cereus; in experiment [1]) was 7 mm each time.
In the case of `O=C(Cn1nc(Cc2ccc(Cl)cc2)n(CCc2c[nH]c3ccccc23)c1=O)NNC(=O)NCc1ccccc1`, the outcome (in the experiment with Candida albicans; in the experiment on Enterococcus faecalis; in the experiment with Saccharomyces cerevisiae; in the experiment with Bacillus cereus; in the experiment on Staphylococcus aureus; in experiment [1]) was inactive. In addition, the result in the experiment on Pseudomonas aeruginosa and with Candida tropicalis was inactive.
For the compound `Cc1ccc(Cc2nn(CC(=O)NNS(=O)(=O)c3ccc(Cl)cc3)c(=O)n2CCc2c[nH]c3ccccc23)cc1`, the outcome with Candida albicans, in the experiment on Enterococcus faecalis, in the experiment on Saccharomyces cerevisiae and with Candida tropicalis was inactive. Also, the “inhibition zone (IZ)” value with Bacillus cereus is 10 mm; in the experiment with Staphylococcus aureus, 7 mm; in experiment [1], 9 mm; in the experiment with Pseudomonas aeruginosa, 10 mm.
